{"source": "patent US20130053336A1", "about": "“TREATMENT OF CHLAMYDIACEAE INFECTIONS BY MEANS OF BETA-LACTAMS” (priority 2010, published 2013)", "key": {"[1]": {"tested_on": "Chlamydia trachomatis serovar L2", "test": "Development and morphology of inclusions in infected HeLa cells (microscopy)", "type": "cell-based", "procedure": "HeLa cells were infected with Chlamydia trachomatis serovar L2 and treated with IFN-γ (100 ng/ml), penicillin G (100 U/ml) or gentamicin ([…]). At various times after infection (hours post-infection (hpi)), the cells were fixed and stained with an antibody against Chlamydia sp. (green in the original figure) and with Hoechst (blue in the original figure). The infected HeLa cells treated with penicillin G have abnormal bodies that grow and that are phenotypically quite different from those formed during treatment with IFN-γ. The bodies formed with penicillin G are appreciably different from “classic” persistent bodies. To examine the effects of penicillin G on cell infection with Chlamydia, the host cells were cultivated up to 70% confluence without antibiotics, and then were infected with C. trachomatis strain […]. muridarum at 1 IFU. The infections were carried out at 37° C. for 90 minutes with centrifugation, followed by a washing of extracellular bacteria. At 3 hpi, after the washings, the culture medium was replaced with medium containing either 25 μg/ml gentamicin or 1-100 IU/ml penicillin G. At regular intervals after treatment with penicillin G, the cultures were either fixed in 4% neutral buffered PFA for 30 minutes to be prepared for confocal microscopy, or collected to determine the infectivity of the progeny bacteria, according to the previously described method (Verbeke, P. et al. PLoS Pathog 2:e45, 2006). HeLa cells cultured in monolayers on slides were infected with serovar L2 with an IFU of 1, as described above (Verbeke, P. et al. PLoS Pathog 2:e45, 2006). Three hours after the infection, the medium was removed and replaced with culture medium containing 500 IU/ml (final concentration) recombinant human IFN-γ."}, "[2]": {"tested_on": "HeLa cells infected with Chlamydia trachomatis", "test": "Sensitivity to apoptosis of infected cells (staurosporine)", "type": "cell-based", "procedure": "A: HeLa cells were infected with Chlamydia trachomatis and treated or not treated with penicillin G at 3 hpi. At 21 hpi, staurosporine was added to the culture medium. The cells were fixed at 48 hpi and stained with an antibody against Chlamydia sp. (green in the original figure) and Hoechst (blue in the original figure).\nB: Normal or apoptotic nuclei associated with inclusions were counted and the percentage of infected cells in apoptosis was calculated.\nHeLa cells were infected in the absence (white bar) or presence of penicillin G (100 U/ml) added at […] (light gray bar) or at 29 hpi (dark gray bar). Staurosporine was added at 31 hpi. The cells were fixed and observed as described below. The apoptotic or normal nuclei associated with inclusions were counted, and the percentages of apoptotic infected cells were determined. In 2 hours, treatment with penicillin G induces a loss of control by Chlamydia trachomatis over host cell apoptosis.\nThe effect of treatment with penicillin G on the anti-apoptotic activity of Chlamydia was determined. HeLa cells cultured in monolayers on slides were infected with serovar L2 and treated with penicillin G at 3 hpi or 29 hpi. At 25 hpi or 32 hpi, respectively, the cells were incubated with 1 μM staurosporine, fixed at 40 hpi or 48 hpi and prepared for epifluorescence microscopy. The percentages of infected cells containing apoptotic nuclei were calculated."}, "[3]": {"tested_on": "Chlamydia trachomatis L2 serovar 16S rRNA", "test": "16S rRNA expression by RT-PCR", "type": "cell-based", "details": "100 hpi", "source_text": "HeLa cells were infected with the Chlamydia trachomatis L2 serovar and treated or not treated with penicillin G at 3 hpi. At 100 hpi, the cells were collected and the RNA extracted carefully to avoid DNA contamination. Half of the isolated RNA was used for reverse transcription. The RNA and cDNA were amplified by PCR with primers for 16S (bacterial) and 18S (eukaryotic) rRNA in order to study bacterial activity and to verify cDNA quality and quantity. PCR of the RNA is used to verify the absence of DNA contamination. It also indicates the absence of contaminant in the PCR. […] Roughly 1×10^5 HeLa cells were infected and exposed or not exposed to penicillin G, as described above. At 100 hpi, total RNA were isolated using the RNeasy Plus Mini Kit (Qiagen, Hilden, Germany). The samples were treated with DNase I for 1 hour at 37° C. The enzyme was then denatured at 70° C. for 10 min. The RNA were reverse-transcribed into cDNA using random hexamer primers and AffinityScript Multiple Temperature Reverse Transcriptase (Agilent, Santa Clara, Calif., USA) and by following the manufacturer's instructions for RT-PCR. cDNA and RNA were amplified by PCR with Tag Polymerase (Invitrogen, Carlsbad, Calif., USA) in order to verify the absence of DNA contamination. The primers used to amplify 16S rRNA are: A semi-quantitative analysis of the PCR products was carried out by agarose gel electrophoresis and UV detection."}, "Chlamydia muridarum": {"tested_on": "Chlamydia muridarum", "test": "Murine model of genital infection (hydrosalpinx)", "type": "in vivo, C57B1/6 mice", "details": "5 mg/ml in drinking water for 20 days from day 10, read 60 days later", "source_text": "The mice were infected by vaginal route with 10^7 IFU of Chlamydia muridarum. […] The antibiotic treatment was stopped after 20 days and the mice were kept isolated for an additional 60 days. The mice were then sacrificed, the appearance of the genital tract analyzed and the presence of hydrosalpinx (arrows) sought.\nC57B1/6 mice were infected with Chlamydia muridarum, a Chlamydia species that infects mice and guinea pigs and is genetically close to Chlamydia trachomatis. Estrous cycles in the mice were initiated by injection of progesterone, and then the mice were infected vaginally after 3 days (10^7 IFU). Ten days after infection, the mice were divided into three groups, a negative control group not receiving any antibiotic, a positive control group receiving doxycycline (5 mg/ml) and a test group receiving penicillin G (5 mg/ml). The duration of the treatment was 20 days; the antibiotics, doxycycline and penicillin G, were added to the mice's drinking water. After treatment, the mice were kept isolated for 60 days in order for persistent bacteria to reinitiate their cycle and for sequelae to develop. The mice were then sacrificed, the appearance of the genital tract analyzed and the presence of hydrosalpinx sought. Various organs were also taken.\nThe effects of penicillin G were tested in a murine model of genital infection. […]"}}, "note": "Entries after “also recorded” stand apart in the source; their conditions may differ."}
{"compound": "CC1(C)S[C@@H]2[C@H](NC(=O)Cc3ccccc3)C(=O)N2[C@H]1C(=O)O", "note": "[Penicillin G, benzylpenicillin]", "values": [{"measurement": "growth of the bacterial inclusions", "setting": "[1]; infected HeLa cells, videomicroscopy / culture for 4 days", "value": "grow as quickly as those of cells treated with gentamicin"}, {"measurement": "time at which infected treated cells were lysed", "setting": "[1]; penicillin G", "value": "120 hours post-infection (hpi)"}, {"measurement": "appearance of abnormally dilated structures depending on time of addition", "setting": "[1]; penicillin G added at various times after infection", "value": "only when penicillin G is added in the first phase of the bacterial cycle (before 24 hpi)"}, {"measurement": "speed of loss of control over host cell apoptosis", "setting": "[2]; penicillin G 100 U/ml at 29 hpi, staurosporine at 31 hpi", "value": "≤ 2", "unit": "h"}, {"measurement": "apoptotic cells", "setting": "[2]; penicillin G at 2 hpi or 29 hpi, staurosporine at 31 hpi, observed 8 hours later", "value": "Roughly 38%"}, {"measurement": "infected cells showing signs of apoptosis", "setting": "[2]; penicillin G, 4 μM staurosporine at 21 hpi, read at 48 hpi", "value": 70.39, "unit": "%"}, {"measurement": "16S rRNA expression in infected cells", "setting": "[3]", "value": "do not produce bacterial RNA; also recorded: express 18S RNA, but not 16S"}, {"measurement": "appearance of the genital tract / hydrosalpinx", "setting": "Chlamydia muridarum", "value": "normal appearance"}]}
